Results reported in patent US20070167466A1, “"Pyrazolo [4,3-d]pyrimidines, processes for their preparation and methods of use"” (priority 2003, published 2007).
Counter-ions that a name gives are not always drawn. Like-named read-outs stand apart in the source and are kept apart here.

Legend:
[1] = biological target: T1, CDK1 (p34^cdc2, cyclin B) (Homo sapiens, UniProt P06493); assay: CDK inhibition assay, p34^cdc2 kinase, histone H1 phosphorylation; type: biochemical; details: 15 μM ATP, histone H1, 30° C.
T1 construct: made in house; host or cells: Sf9 insect cells (baculovirus co-infection)
Method: The controls contain suitable dilutions of DMSO.
2-glycerolphosphate, 1 mM NaF, 1 mM DTT

[2] = biological target: CDK2 (p33^cdk2, cyclin E) (Homo sapiens, UniProt P24941); assay: CDK inhibition assay, p33^cdk2 kinase, histone H1 phosphorylation;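 further: Baculovirus-expressed kinase/cyclin complex from Sf9 cell extract, 10 min at 30 °C, phosphoproteins separated by SDS gel and quantified by image analysis, activity relative to DMSO control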
Method: Cyclin-dependent kinases (p34^cdc2, p33^cdk2) and cyclins (cyclin B, E) are produced in Sf9 insect cells coinfected with appropriate baculoviral constructs. The cells are harvested 68-72 hrs post infection in lysis buffer for 30 min on ice and the soluble fraction is recovered by centrifugation at 14.000 g for 10 min. The protein extract is stored at −80° C.
Lysis buffer: 50mM Tris pH 7.4, 150mM NaCl, 5 mM EDTA, 20 mM NaF, 1% Tween, 1 mM DTT, 0.1 mM PMSF, leupeptine, aprotonine.
To carry out experiments on kinetics under linear conditions, the final point test system for kinase activity measurement is used. The kinase is added to reaction mixture in such a way as to obtain linear activity with respect to the concentration of enzyme and with respect to time.
Kinase activity is determined at 30° C. in the kinase buffer.
Tested compounds are usually dissolved to 100 mM solutions in DMSO, final concentration of DMSO in reaction mixture never exceeds 1%. The controls contain suitable dilutions of DMSO.
After 10 min, addition 3×SDS sample buffer stops the incubations. Phosphorylated proteins are separated electrophoretically using 10% SDS polyacrylamide gel. The measurement of kinase activity is done using digital image analysis.
The kinase activity is expressed as a percentage of maximum activity, the apparent inhibition constants are determined by graphic analysis.
Kinase buffer: 50 mM Hepes pH 7.4, 10 mM MgCl2, 5 mM EGTA, 10 mM

[3] = system: MCF7 (human breast adenocarcinoma); assay: In vitro cytotoxic activity, Calcein AM, three days; type: cell-based
Method: (§1) We have been using the following cell lines: HELA (human cervical carcinoma), MCF7 (human breast adenocarcinoma), NIH 3T3 (mouse fibroblasts), HOS (human osteogenic sarcoma), HL 60 (human promyelocytic leukemia), G 361 (human malignant melanoma), K562 (human chronic myeloblastic leukemia), CEM (human lymphoblastoid leukaemia). Tested drugs were added to the cell cultures in six different concentration and kept at 37° C. and 5% CO2 for three days. All cell lines were grown in DMBM medium (Gibco BRL) supplemented with 10% (v/v) fetal bovine serum and L-glutamine and maintained at 37° C. in a humidified atmosphere with 5% CO2. 10^4 cells were seeded into each well of 96 well plate, allowed to stabilize for at least 2 h and then tested compounds were added at various concentrations ranging from 200 to 0.2 μM in triplicates. Three days after drug addition Calcein AM solution (Molecular Probes) was added and let to enter the cells for 1 hour. Fluorescence of viable cells was quantified employing Fluoroskan Ascent (Microsystems).

[4] = system: K562 (human chronic myeloblastic leukemia); assay: as above; type: cell-based; details: read-out: K-562 IC50
Method: as §1

[5] = system: Cytokinin-dependent tobacco callus Nicotiana tabacum L. cv. Wisconsins 38; assay: Tobacco callus bioassay for cytotoxicity (herbicidal activity); type: cell-based; details: four weeks
Method: The compounds to be tested were dissolved in dimethylsulfoxide (DMSO) and the solution brought up to 10^−3 M with distilled water. […] Cytokinin-dependent tobacco callus Nicotiana tabacum L. cv. […] Subcultivation was carried out every three weeks. Fourteen days before the bioassay, the callus tissue was transferred to the media without 6-benzylaminopurine. Compounds were tested with two different concentrations of 6-benzylaminopurine (10^−5 M and 10^−6 M). Inhibitory growth activity was determined from the increase in fresh callus weight after four weeks of cultivation. Five replicates were prepared for each concentration tested and the entire test was repeated at least twice.

MMK1 protein kinase = MMK1 protein kinase (Vicia faba, UniProt A0AAV1B7B8); assay: Plant MMK1 protein kinase inhibition assay; type: biochemical; details: plant kinase purified from Vicia faba extracts
Method: Protein extraction and purification of pant CDK by binding to p13^suc1-beads or immunopurification with an antibody specific to the cdc2a-MS protein was carried out as described previously (Bögre et al. 1997, Plant Physiol. 113, 1997, 841-852). The MMK1 protein kinase was purified with a specific antibody from Vicia faba extracts as described by Bögre et al. 1997a, Plant Cell 9, 75-83). Protein kinase activity was measured as described above in Example 19. The quantification of radioactivity incorporated into histone H1 or myelin basic protein was undertaken using Phosphoimager (original gel images shown on FIG. 1). IC50 were calculated from dose-response curves. The drugs inhibited the activity of immunopurified Vicia faba and alfalfa Cdc2-kinase. […] In contrast to the regular bipolar spindle in untreated cell, in drug-treated metaphase cells abnormally short and dense kinetochore microtubule fibres were observed. These microtubules were randomly arranged in the vicinity of the kinetochores and connected the chromosomes. Thus the chromosomes were not aligned on the metaphase plate but were arranged in a circle, with kinetochores pointing inwards and chromosome arms pointing outwards. γ-tubulin, which plays a role in microtubule nucleation, also localised to the centre of the monopolar spindle.

[6] = Nicotiana tabacum, 672 h, read-out: IC50, growth of tobacco callus, 10^−5 M BAP, 10^−5 M 6-benzylaminopurine
[7] = Nicotiana tabacum, 672 h, 10^−6 M 6-benzylaminopurine, read-out: IC50, growth of tobacco callus, 10^−6 M BAP
[8] = read-out: CDK2 IC50, 15 μM ATP, histone H1, 30° C.

T1 sequence (P06493 whole entry, species assumed): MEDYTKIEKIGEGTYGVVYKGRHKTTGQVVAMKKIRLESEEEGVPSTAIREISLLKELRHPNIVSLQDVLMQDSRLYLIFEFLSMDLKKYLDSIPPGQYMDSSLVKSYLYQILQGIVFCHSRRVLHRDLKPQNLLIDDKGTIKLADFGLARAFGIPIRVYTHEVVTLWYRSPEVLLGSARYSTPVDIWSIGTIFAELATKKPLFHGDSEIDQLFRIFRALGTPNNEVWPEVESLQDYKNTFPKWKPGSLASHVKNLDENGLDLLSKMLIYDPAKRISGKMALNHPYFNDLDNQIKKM
T1 sequence (P14635 whole entry partner, species assumed): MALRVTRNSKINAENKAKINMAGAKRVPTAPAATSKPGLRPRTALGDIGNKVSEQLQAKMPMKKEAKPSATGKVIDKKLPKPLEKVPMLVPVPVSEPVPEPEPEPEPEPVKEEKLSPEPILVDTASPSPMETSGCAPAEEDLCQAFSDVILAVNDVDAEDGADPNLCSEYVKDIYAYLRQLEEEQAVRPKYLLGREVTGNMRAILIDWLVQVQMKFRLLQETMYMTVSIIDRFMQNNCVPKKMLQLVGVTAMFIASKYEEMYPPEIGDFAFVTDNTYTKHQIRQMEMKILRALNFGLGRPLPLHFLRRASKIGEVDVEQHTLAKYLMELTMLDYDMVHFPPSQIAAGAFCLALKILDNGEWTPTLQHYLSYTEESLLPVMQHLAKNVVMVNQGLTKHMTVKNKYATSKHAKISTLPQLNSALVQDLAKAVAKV
MMK1 protein kinase, sequence (A0AAV1B7B8 entry or part of it): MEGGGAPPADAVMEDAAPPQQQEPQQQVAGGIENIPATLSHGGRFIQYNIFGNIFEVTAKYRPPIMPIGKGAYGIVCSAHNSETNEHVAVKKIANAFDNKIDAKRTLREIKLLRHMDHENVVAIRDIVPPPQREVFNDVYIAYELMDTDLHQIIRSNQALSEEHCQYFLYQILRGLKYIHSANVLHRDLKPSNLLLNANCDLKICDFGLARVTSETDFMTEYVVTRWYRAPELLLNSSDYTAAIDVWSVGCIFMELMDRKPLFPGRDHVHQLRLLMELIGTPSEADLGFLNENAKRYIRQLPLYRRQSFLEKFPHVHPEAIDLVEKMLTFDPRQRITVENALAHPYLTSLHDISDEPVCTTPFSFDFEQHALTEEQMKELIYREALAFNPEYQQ

Row | melting point [°C] | IC50 [1] [µM] | IC50 [2] [µM] | IC50 [2, 8] [µM] | Compound | IC50 ([3]; Homo sapiens, MCF7, 72 h) [µM] | IC50 ([4]; Homo sapiens, K562, 72 h) [µM] | IC50 [5, 6] [µM] | IC50 [5, 7] [µM] | IC50 (MMK1 protein kinase) [µM] | IC50 ([5]; 10^−6 M 6-benzylaminopurine, read-out: IC50, growth of tobacco callus, 10^−6 M BAP) [µM] | IC50 ([5]; read-out: IC50, growth of tobacco callus, 10^−5 M BAP, 10^−5 M 6-benzylaminopurine) [µM] | IC50 [3] [µM] | IC50 [4] [µM]
1 | 73 to 75 | 1.7 | 1.4 | – | CCCCCNc1ncnc2c(C(C)C)n[nH]c12 [pentylamino / isopropyl, 7-pentylamino-3-isopropylpyrazolo[4,3-d]pyrimidine] | 32 | 61 | – | – | – | – | – | – | –
2 | – | 16 | 14 | – | C=CCNc1ncnc2c(C(C)C)n[nH]c12 [allylamino / isopropyl] | 64 | 77 | 18 | 3.7 | – | – | – | – | –
3 | – | 4.5 | 1.3 | – | CC(C)=CCNc1ncnc2c(C(C)C)n[nH]c12 [isopentenylamino / isopropyl, 7-(isopent-2-en-(1-yl)amino)-3-isopropylpyrazolo[4,3-d]pyrimidine] | > 167 | > 167 | 15.3 | 1.7 | – | – | – | – | –
4 | – | – | – | – | Cn1cnc2c(NCc3ccccc3)nc(NCCO)nc21 [Olomoucine, reference compound] | 132 | > 167 | > 50 | > 50 | – | – | – | – | –
5 | – | 1.8 | 1.1 | – | CC(C)c1n[nH]c2c(NCc3ccc(Cl)cc3)ncnc12 [4-chlorobenzylamino / isopropyl] | – | – | 12.1 | 4.7 | – | – | – | – | –
6 | – | – | – | – | CC(C)c1n[nH]c2c(NC3CCC3)ncnc12 [cyclobutylamino / isopropyl] | – | – | – | – | – | 4.3 | 12.1 | 45 | 60
7 | 143 to 144 | 2.3 | 1 | – | COc1ccc(CNc2ncnc3c(C(C)C)n[nH]c23)cc1 [4-methoxybenzylamino / isopropyl, 7-(4-methoxybenzyl)amino-3-isopropylpyrazolo[4,3d]pyrimidine] | 28 | 41 | – | – | – | – | – | – | –
8 | 213 to 216 | – | – | – | CC(C)c1n[nH]c2c(Nc3cccc(Cl)c3)ncnc12 (as salt: salt) [3-chloroanilino / isopropyl, 7-(3-chloroanilino)-3-isopropylpyrazolo[4,3-d]pyrimidine] | – | – | – | – | – | – | – | – | –
9 | 179 to 182 | 1.8 | 0.8 | – | CC(C)c1n[nH]c2c(NCc3ccco3)ncnc12 [furfurylamino / isopropyl, 7-furfurylamino-3-isopropylpyrazolo[4,3-d]pyrimidine] | 130 | > 167 | 25 | 9.4 | – | – | – | – | –
10 | – | 7 | 9 | – | CC(C)c1n[nH]c2c(NCc3ccccc3Br)ncnc12 [2-bromobenzylamino / isopropyl, 7-(2-bromobenzyl)amino-3-isopropylpyrazolo[4,3-d]pyrimidine] | 42 | 57 | – | – | – | – | – | – | –
11 | – | 2 | 1.4 | – | Cc1ccccc1CNc1ncnc2c(C(C)C)n[nH]c12 [2-methylbenzylamino / isopropyl] | 63 | 75 | 14 | 4.2 | – | – | – | – | –
12 | – | 18 | 20 | – | CC(C)c1n[nH]c2c(NC3CCCC3)ncnc12 [cyclopentylamino / isopropyl] | – | – | 15.6 | 8.4 | – | – | – | – | –
13 | – | 5.5 | 7.2 | – | Cc1n[nH]c2c(NCc3cccc(O)c3)ncnc12 [3-hydroxybenzylamino / methyl] | 119 | 143 | – | – | – | – | – | – | –
14 | – | 6.1 | 5.8 | – | CC(C)c1n[nH]c2c(Nc3cc(N)cc(Cl)c3)ncnc12 [3-chloro-5-aminoanilino / isopropyl] | 29 | 35 | – | – | – | – | – | – | –
15 | – | 0.9 | – | 0.2 | COc1ccc(CNc2ncnc3c(C(C)C)n[nH]c23)cc1O [7-(3-hydroxy-4-methoxybenzyl)amino-3-isopropylpyrazolo[4,3d]pyrimidine] | – | – | – | – | – | – | – | 45 | 68
16 | – | 2.2 | 3.1 | – | Cc1cccc(CNc2ncnc3c(C(C)C)n[nH]c23)c1 [3-methylbenzylamino / isopropyl] | 76 | 94 | 26 | 8.5 | – | – | – | – | –
17 | – | 6.2 | 7 | – | CCc1n[nH]c2c(NCc3ccccc3O)ncnc12 [2-hydroxybenzylamino / ethyl] | 63 | 51 | – | – | – | – | – | – | –
18 | – | 8.2 | 5.3 | – | CCc1n[nH]c2c(NCc3ccco3)ncnc12 [furfurylamino / ethyl] | 135 | > 167 | – | – | – | – | – | – | –
19 | – | 4 | 5.2 | – | Cc1n[nH]c2c(NCc3ccccc3O)ncnc12 [2-hydroxybenzylamino / methyl] | 67 | 55 | – | – | – | – | – | – | –
20 | – | 1.8 | 0.2 | – | CC(C)c1n[nH]c2c(NCc3ccc(O)cc3)ncnc12 [4-hydroxybenzylamino / isopropyl, 7-(4-hydroxybenzyl)amino-3-isopropylpyrazolo[4,3-d]pyrimidine] | 152 | > 167 | – | – | – | – | – | – | –
21 | – | 2.1 | 3.1 | – | CC(C)c1n[nH]c2c(Nc3ccc(Cl)cc3)ncnc12 [4-chloroanilino / isopropyl] | 3 | 4 | – | – | – | – | – | – | –
22 | – | 80 | – | 70 | CC(C)c1n[nH]c2c(NC3CCC(N)CC3)ncnc12 (stereo not shown) [(4-aminocyclohexyl)amino / isopropyl] | – | – | – | – | – | – | – | 68 | 107
23 | – | 27 | 25 | – | CCc1n[nH]c2c(NC3CCC3)ncnc12 [cyclobutylamino / ethyl] | 82 | 94 | – | – | – | – | – | – | –
24 | – | 4.4 | 5.2 | – | CC(C)c1n[nH]c2c(Nc3ccccc3)ncnc12 [anilino / isopropyl] | 15 | 21 | 41 | 5.3 | – | – | – | – | –
25 | – | 80 | 95 | – | CC(C)c1n[nH]c2c(NC3CCCCC3)ncnc12 [cyclohexylamino / isopropyl] | 95 | 98 | 46 | 9.4 | – | – | – | – | –
26 | – | 6 | 3.2 | – | CCc1n[nH]c2c(NCc3cccc(O)c3)ncnc12 [3-hydroxybenzylamino / ethyl] | 111 | 132 | – | – | – | – | – | – | –
27 | – | 2.1 | 2 | – | CC(C)c1n[nH]c2c(NCc3ccccc3Cl)ncnc12 [2-chlorobenzylamino / isopropyl] | 15 | 21 | 31 | 4.6 | – | – | – | – | –
28 | – | 8.8 | 9.4 | – | CC(C)c1n[nH]c2c(NCc3cccc(Cl)c3)ncnc12 [3-chlorobenzylamino / isopropyl] | 24 | 26 | 20 | 1.7 | – | – | – | – | –

Row | Compound | melting point [°C] | IC50 [1] [µM] | IC50 [2] [µM] | IC50 [2, 8] [µM] | IC50 ([3]; Homo sapiens, MCF7, 72 h) [µM] | IC50 ([4]; Homo sapiens, K562, 72 h) [µM] | IC50 [5, 6] [µM] | IC50 [5, 7] [µM] | IC50 (MMK1 protein kinase) [µM] | IC50 ([5]; 10^−6 M 6-benzylaminopurine, read-out: IC50, growth of tobacco callus, 10^−6 M BAP) [µM] | IC50 ([5]; read-out: IC50, growth of tobacco callus, 10^−5 M BAP, 10^−5 M 6-benzylaminopurine) [µM] | IC50 [3] [µM] | IC50 [4] [µM]
29 | Cc1n[nH]c2c(NCc3ccccc3Cl)ncnc12 [2-chlorobenzylamino / methyl] | – | 25 | – | 24 | – | – | – | – | 25 | – | – | – | –
